Data: US11369556B2, “Oral care composition comprising rottlerin” (Colgate-Palmolive Company, priority 2017, dated 2022)

Columns and labels:
S. oralis [1] = assay: 10-hour bacterial growth, optical density readings, S. oralis; assay type: cell-based, Streptococcus oralis
Method: (§1) In particular, Tables 1-3 illustrate 10-hour bacterial growth in terms of optical density (OD) readings taken at one-hour intervals, where the density readings represent the amount of bacteria present.
(§2) The bacterial cultures were grown overnight and standardized to a 0.05 OD reading, after which, different concentrations of rottlerin were added, and the bacterial growth was monitored hourly for 10 hours using a plate reader.
Table 1 illustrates three examples of S. oralis bacterial growth: one showing the untreated growth of S. oralis, another showing the growth of S. oralis after treatment with 10 μM of rottlerin, and a final example showing the growth of S. oralis after treatment with 20 μM of rottlerin.

A. viscosus = assay: 10-hour bacterial growth, optical density readings, A. viscosus; assay type: cell-based, Actinomyces viscosus
Method: as §1, §2
Table 2 illustrates three examples of A. viscosus bacterial growth: an untreated A. viscosus growth, a growth of A. viscosus after treatment with 10 μM of rottlerin, and a growth of A. viscosus after treatment with 20 μM of rottlerin.

[2] = tested on: mixed species, equal amounts of S. oralis, S. mutans, and A. viscosus; assay: 10-hour bacterial growth, optical density readings, mixed species; assay type: cell-based
Method: as §1, §2
Finally, Table 3 illustrates three examples of mixed species bacterial growth, including equal amounts of S. oralis, S. mutans, and A. viscosus species: an untreated growth, a growth of the mixed species after treatment with 10 μM of rottlerin, and a growth of the mixed species after treatment with 20 μM of rottlerin.

S. oralis [3] = assay: Metabolic activity of S. oralis, ATP assay; assay type: cell-based, Streptococcus oralis; details: for Reduction of Metabolic Activity: incubated 1 hour at 37° C.
Method: (§3) S. ovalis is a representative streptococcus species of bacteria that colonize the oral cavity and may serve as a representative species for the efficacy of antimicrobial agents. Table 4 (below) illustrates the effects of rottlerin on the metabolic activity and cell viability of S. ovalis when treated with various concentrations of rottlerin. The metabolic activity of the S. ovalis bacteria was measured through ATP assays, and the cell viability was measured using a resazurin assay.
Similarly, the metabolic activity was measured through an ATP assay as follows: A culture of S. oralis bacteria was grown and standardized to a 610˜0.6 OD. 500 μl of the S. ovalis bacteria culture was then transferred to a clean and sterile micro-centrifuge tube and treated as above. Three 100 μl samples from each tube were then individually plated in individual wells of a 96-well plate and 100 μl of Bactitre glow ATP reagent was added. The metabolic activity of the S. oralis bacteria was then monitored by measuring luminescence, with an increase in luminescence correlating with higher metabolic cells.

S. oralis [4] = assay: Cell viability of S. oralis, resazurin assay; assay type: cell-based, Streptococcus oralis; details: for Cell Viability: incubated 1 hour at 37° C.
Method: as §3
In particular, the cell viability of S. oralis was measured through a resazurin assay as follows: A culture of S. oralis bacteria was grown and standardized to a 610˜0.6 OD. 500 μl of the S. oralis bacteria culture was then transferred to a clean and sterile micro-centrifuge tube. The tube was then centrifuged at greater than 15,000 g for 10 minutes to pellet the bacteria. The tube samples were then treated with different amounts of rottlerin and resuspended in 1 ml of 0.25× Trypticase soy broth (TSB) in water. Control and dead samples were created by resuspending the pellet bacteria in sterile media or 100% ethanol, and without adding rottlerin. The tubes were then inverted 3 times for mixing and incubated at 37° C. for 1 hour. Afterwards, 1 ml of D/E neutralizing broth was added to each tube and the samples in the tubes were then washed and stained. The tubes were then centrifuged at greater than 15,000 g for 10 minutes to pellet the bacteria again. The supernate was then removed and the bacteria was resuspended in 1 ml of sterile 0.25× TSB wash. Three 100 μl samples from each tube were then each individually plated in individual wells of a 96-well plate. The samples were then prepared for a standard analytic curve by combining fixed ratios of the live and dead control samples. 100 μl of the resazurin dye solution were then added to each well, and the 96-well plate was then incubated at 37° C. until the live control samples turned the appropriate pink color. A fluorescence plate reader was then used to read the fluorescence of the resazurin dye at 560 nm excitation/590 nm emission, and a percentage of live and dead cells was then calculated.

[5] = low concentrations of rottlerin

## CC(=O)c1c(O)c(C)c(O)c(Cc2c(O)c3c(c(C(=O)/C=C/c4ccccc4)c2O)OC(C)(C)C=C3)c1O [rottlerin, 5,7-dihydro-2,2-dimethyl-6-(2,4,6-trihydroxy-3-methyl-5-acetylbenzyl)-8-cinnamoyl-1,2-chromene]
S. oralis [1]; 10 μM, exposure time 1 hour
  S. oralis growth (OD): 0.10 OD
S. oralis [1]; 10 μM, exposure time 2 hours
  S. oralis growth (OD): 0.095 OD
S. oralis [1]; 10 μM, exposure time 3 hours
  S. oralis growth (OD): 0.091 OD
S. oralis [1]; 10 μM, exposure time 4 hours
  S. oralis growth (OD): 0.088 OD
S. oralis [1]; 10 μM, exposure time 5 hours
  S. oralis growth (OD): 0.089 OD
S. oralis [1]; 10 μM, exposure time 6 hours
  S. oralis growth (OD): 0.091 OD
S. oralis [1]; 10 μM, exposure time 7 hours
  S. oralis growth (OD): 0.088 OD
S. oralis [1]; 10 μM, exposure time 8 hours
  S. oralis growth (OD): 0.075 OD
S. oralis [1]; 10 μM, exposure time 9 hours
  S. oralis growth (OD): 0.075 OD
S. oralis [1]; 10 μM, exposure time 10 hours
  S. oralis growth (OD): 0.074 OD
S. oralis [1]; 20 μM, exposure time 1 hour
  S. oralis growth (OD): 0.098 OD
S. oralis [1]; 20 μM, exposure time 2 hours
  S. oralis growth (OD): 0.099 OD
S. oralis [1]; 20 μM, exposure time 3 hours
  S. oralis growth (OD): 0.089 OD
S. oralis [1]; 20 μM, exposure time 4 hours
  S. oralis growth (OD): 0.088 OD
S. oralis [1]; 20 μM, exposure time 5 hours
  S. oralis growth (OD): 0.091 OD
S. oralis [1]; 20 μM, exposure time 6 hours
  S. oralis growth (OD): 0.090 OD
S. oralis [1]; 20 μM, exposure time 7 hours
  S. oralis growth (OD): 0.090 OD
S. oralis [1]; 20 μM, exposure time 8 hours
  S. oralis growth (OD): 0.081 OD
S. oralis [1]; 20 μM, exposure time 9 hours
  S. oralis growth (OD): 0.080 OD
S. oralis [1]; 20 μM, exposure time 10 hours
  S. oralis growth (OD): 0.079 OD
S. oralis [1]; S. oralis, low concentrations of rottlerin (Table 1)
  growth of bacteria compared to an untreated control: significantly reduced
A. viscosus; 10 μM, exposure time 1 hour
  A. viscosus growth (OD): 0.105 OD
A. viscosus; 10 μM, exposure time 2 hours
  A. viscosus growth (OD): 0.112 OD
A. viscosus; 10 μM, exposure time 3 hours
  A. viscosus growth (OD): 0.104 OD
A. viscosus; 10 μM, exposure time 4 hours
  A. viscosus growth (OD): 0.093 OD
A. viscosus; 10 μM, exposure time 5 hours
  A. viscosus growth (OD): 0.091 OD
A. viscosus; 10 μM, exposure time 6 hours
  A. viscosus growth (OD): 0.087 OD
A. viscosus; 10 μM, exposure time 7 hours
  A. viscosus growth (OD): 0.084 OD
A. viscosus; 10 μM, exposure time 8 hours
  A. viscosus growth (OD): 0.085 OD
A. viscosus; 10 μM, exposure time 9 hours
  A. viscosus growth (OD): 0.082 OD
A. viscosus; 10 μM, exposure time 10 hours
  A. viscosus growth (OD): 0.079 OD
A. viscosus; 20 μM, exposure time 1 hour
  A. viscosus growth (OD): 0.105 OD
A. viscosus; 20 μM, exposure time 2 hours
  A. viscosus growth (OD): 0.122 OD
A. viscosus; 20 μM, exposure time 3 hours
  A. viscosus growth (OD): 0.121 OD
A. viscosus; 20 μM, exposure time 4 hours
  A. viscosus growth (OD): 0.115 OD
A. viscosus; 20 μM, exposure time 5 hours
  A. viscosus growth (OD): 0.113 OD
A. viscosus; 20 μM, exposure time 6 hours
  A. viscosus growth (OD): 0.106 OD
A. viscosus; 20 μM, exposure time 7 hours
  A. viscosus growth (OD): 0.1 OD
A. viscosus; 20 μM, exposure time 8 hours
  A. viscosus growth (OD): 0.097 OD
A. viscosus; 20 μM, exposure time 9 hours
  A. viscosus growth (OD): 0.091 OD
A. viscosus; 20 μM, exposure time 10 hours
  A. viscosus growth (OD): 0.086 OD
A. viscosus; A. viscosus, low concentrations of rottlerin (Table 2)
  growth of bacteria compared to an untreated control: significantly reduced
[2]; 10 μM, exposure time 1 hour
  Mixed species growth (OD): 0.088 OD
[2]; 10 μM, exposure time 3 hours
  Mixed species growth (OD): 0.083 OD
[2]; 10 μM, exposure time 4 hours
  Mixed species growth (OD): 0.081 OD
[2]; 10 μM, exposure time 5 hours
  Mixed species growth (OD): 0.082 OD
[2]; 10 μM, exposure time 6 hours
  Mixed species growth (OD): 0.079 OD
[2]; 10 μM, exposure time 7 hours
  Mixed species growth (OD): 0.076 OD
[2]; 10 μM, exposure time 8 hours
  Mixed species growth (OD): 0.073 OD
[2]; 10 μM, exposure time 9 hours (head of second time column, c2)
  Mixed species growth (OD): 0.085 OD
[2]; 10 μM, exposure time 10 hours
  Mixed species growth (OD): 0.070 OD
[2]; 20 μM, exposure time 1 hour
  Mixed species growth (OD): 0.089 OD
[2]; 20 μM, exposure time 3 hours
  Mixed species growth (OD): 0.090 OD
[2]; 20 μM, exposure time 4 hours
  Mixed species growth (OD): 0.089 OD
[2]; 20 μM, exposure time 5 hours
  Mixed species growth (OD): 0.088 OD
[2]; 20 μM, exposure time 6 hours
  Mixed species growth (OD): 0.085 OD
[2]; 20 μM, exposure time 7 hours
  Mixed species growth (OD): 0.082 OD
[2]; 20 μM, exposure time 8 hours
  Mixed species growth (OD): 0.076 OD
[2]; 20 μM, exposure time 9 hours (head of second time column, c2)
  Mixed species growth (OD): 0.091 OD
[2]; 20 μM, exposure time 10 hours
  Mixed species growth (OD): 0.071 OD
[2]; mixed species, low concentrations of rottlerin (Table 3)
  growth of bacteria compared to an untreated control: significantly reduced
S. oralis [3]; Rottlerin Amt. 0.25 μg
  Reduction of Metabolic Activity: 40%
S. oralis [3]; Rottlerin Amt. 1.25 μg
  Reduction of Metabolic Activity: 51%
S. oralis [3]; Rottlerin Amt. 2.5 μg
  Reduction of Metabolic Activity: 60%
S. oralis [3]; Rottlerin Amt. 5 μg
  Reduction of Metabolic Activity: 61%
S. oralis [3]; Rottlerin Amt. 10 μg
  Reduction of Metabolic Activity: 72%
S. oralis [3]; Rottlerin Amt. 12.5 μg
  Reduction of Metabolic Activity: 75%
S. oralis [3]; [5]
  metabolic activity of S. oralis: significantly negatively affected
S. oralis [4]; Rottlerin Amt. 0.25 μg
  Cell Viability: 79.5%
S. oralis [4]; Rottlerin Amt. 1.25 μg
  Cell Viability: 61%
S. oralis [4]; Rottlerin Amt. 2.5 μg
  Cell Viability: 49.4%
S. oralis [4]; Rottlerin Amt. 5 μg
  Cell Viability: 41.1%
S. oralis [4]; Rottlerin Amt. 10 μg
  Cell Viability: 25.9%
S. oralis [4]; Rottlerin Amt. 12.5 μg
  Cell Viability: 19.9%
S. oralis [4]; [5]
  cell viability of S. oralis: significantly negatively affected
